Data reported in patent US10913727B2, “Modulators of the integrated stress pathway” (Calico Life Sciences LLC, priority 2016, dated 2021).

Test system: HEK293T cells carrying the ATF4 luciferase reporter
Assay: ATF4-Luc assay, in vitro model of Vanishing Cell White Matter Disease (VWMD)
Type: cell-based
Conditions: Homo sapiens, HEK-293T, 1 μg/mL tunicamycin, 7 hours, One Glo luminescence
Summary of the method: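 Stable HEK293T line with human ATF4 5′-UTR–firefly luciferase reporter treated with 1 μg/mL tunicamycin plus 200 nM compound for 7 h. Luminescence read; EC50 derived.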

SMILES	EC50 [nM]
Cc1nc(C(=O)NC23CCC(NC(=O)COc4ccc(Cl)c(F)c4)(CC2)C(O)C3)co1 (stereo not shown) [Compound 467, N-{4-[2-(4-chloro-3-fluorophenoxy)acetamido]-3-hydroxybicyclo[2.2.2]octan-1-yl}-2-methyl-1,3-oxazole-4-carboxamide]	50 to 250
CCSc1cncc(C(=O)NC23CC(NC(=O)COc4ccc(Cl)c(F)c4)(C2)C3)n1 [Compound 898, N-{3-[2-(4-chloro-3-fluorophenoxy)acetamido]bicyclo[1.1.1]pentan-1-yl}-6-(ethylsulfanyl)pyrazine-2-carboxamide]	50 to 250
O=C(COc1ccc(Cl)c(Cl)c1)NC12CC(NC(=O)c3nc(C4CC4)cs3)(C1)C2 [Compound 697, 4-cyclopropyl-N-{3-[2-(3,4-dichlorophenoxy)acetamido]bicyclo[1.1.1]pentan-1-yl}-1,3-thiazole-2-carboxamide]	< 50
Cn1c(C(=O)NC23CC(NC(=O)COc4ccc(Cl)c(F)c4)(C2)C3)cc2ccccc21 [Compound 648, N-{3-[2-(4-chloro-3-fluorophenoxy)acetamido]bicyclo[1.1.1]pentan-1-yl}-1-methyl-1H-indole-2-carboxamide]	50 to 250
O=C(COc1ccc(Cl)c(F)c1)NC12CC(NC(=O)c3cccc(Cn4cncn4)c3)(C1)C2 [Compound 892, N-{3-[2-(4-chloro-3-fluorophenoxy)acetamido]bicyclo[1.1.1]pentan-1-yl}-3-[(1H-1,2,4-triazol-1-yl)methyl]benzamide]	250 to 1000
Cc1ccnc(C(=O)NC23CCC(NC(=O)COc4ccc(Cl)c(F)c4)(CC2)C(O)C3)c1 (stereo not shown) [Compound 915, N-{4-[2-(4-chloro-3-fluorophenoxy)acetamido]-3-hydroxybicyclo[2.2.2]octan-1-yl}-4-methylpyridine-2-carboxamide]	250 to 1000
N#Cc1ccnc(C(=O)NC23CC(NC(=O)COc4ccc(Cl)c(F)c4)(C2)C3)c1 [Compound 182, N-{3-[2-(4-chloro-3-fluorophenoxy)acetamido]bicyclo[1.1.1]pentan-1-yl}-4-cyanopyridine-2-carboxamide]	50 to 250
O=C(COc1ccc(Cl)c(F)c1)NC12CCC(NC(=O)c3cccc(F)c3)(CC1)C[C@@H]2O [Compound 681, N-{(3S)-4-[2-(4-chloro-3-fluorophenoxy)acetamido]-3-hydroxybicyclo[2.2.2]octan-1-yl}-3-fluorobenzamide]	< 50
CCc1ccnc(C(=O)NC23CCC(NC(=O)COc4ccc(Cl)c(F)c4)(CC2)C(O)C3)c1 (stereo not shown) [Compound 918, N-{4-[2-(4-chloro-3-fluorophenoxy)acetamido]-3-hydroxybicyclo[2.2.2]octan-1-yl}-4-ethylpyridine-2-carboxamide]	250 to 1000
N#Cc1ccc(C(=O)NC23CCC(NC(=O)COc4ccc(Cl)c(F)c4)(CC2)CC3O)cc1 (stereo not shown) [Compound 210, N-{4-[2-(4-chloro-3-fluorophenoxy)acetamido]-2-hydroxybicyclo[2.2.2]octan-1-yl}-4-cyanobenzamide]	250 to 1000
Cn1nc(C(F)F)cc1C(=O)NC12CCC(NC(=O)COc3ccc(Cl)c(F)c3)(CC1)C(O)C2 (stereo not shown) [Compound 437, N-{4-[2-(4-chloro-3-fluorophenoxy)acetamido]-3-hydroxybicyclo[2.2.2]octan-1-yl}-3-(difluoromethyl)-1-methyl-1H-pyrazole-5-carboxamide]	< 50
O=C(COc1ccc(Cl)c(F)c1)NC12CCC(NC(=O)c3ccc(C4CC4)cn3)(CC1)CC2O (stereo not shown) [Compound 938, N-{4-[2-(4-chloro-3-fluorophenoxy)acetamido]-3-hydroxybicyclo[2.2.2]octan-1-yl}-5-cyclopropylpyridine-2-carboxamide]	50 to 250
O=C(COc1ccc(Cl)c(F)c1)NC12CCC(NC(=O)c3cscn3)(CC1)C(O)C2 (stereo not shown) [Compound 212, N-{4-[2-(4-chloro-3-fluorophenoxy)acetamido]-2-hydroxybicyclo[2.2.2]octan-1-yl}-1,3-thiazole-4-carboxamide]	250 to 1000
Cc1ccc(C(=O)NC23CCC(NC(=O)COc4ccc(Cl)c(F)c4)(CC2)CC3O)cn1 (stereo not shown) [Compound 228, N-{4-[2-(4-chloro-3-fluorophenoxy)acetamido]-2-hydroxybicyclo[2.2.2]octan-1-yl}-6-methylpyridine-3-carboxamide]	> 2000
N#Cc1ccsc1C(=O)NC12CC(NC(=O)COc3ccc(Cl)c(F)c3)(C1)C2 [Compound 860, N-{3-[2-(4-chloro-3-fluorophenoxy)acetamido]bicyclo[1.1.1]pentan-1-yl}-3-cyanothiophene-2-carboxamide]	1000 to 2000
O=C(COc1ccc(Cl)c(F)c1)NC12CC(NC(=O)c3cccc(F)c3)(C1)C2 [Compound 508, N-{3-[2-(4-chloro-3-fluorophenoxy)acetamido]bicyclo[1.1.1]pentan-1-yl}-3-fluorobenzamide]	50 to 250
Cn1c(C(=O)NC23CC(NC(=O)COc4ccc(Cl)c(F)c4)(C2)C3)ccc1S(N)(=O)=O [Compound 867, N-{3-[2-(4-chloro-3-fluorophenoxy)acetamido]bicyclo[1.1.1]pentan-1-yl}-1-methyl-5-sulfamoyl-1H-pyrrole-2-carboxamide]	> 2000

SMILES	EC50 [nM]
O=C(COc1ccc(Cl)c(Cl)c1)NC12CC(NC(=O)c3cc(OC(F)F)ccn3)(C1)C2 [Compound 716, N-{3-[2-(3,4-dichlorophenoxy)acetamido]bicyclo[1.1.1]pentan-1-yl}-4-(difluoromethoxy)pyridine-2-carboxamide]	250 to 1000
Cc1c(C(=O)NC23CCC(NC(=O)COc4ccc(Cl)c(F)c4)(CC2)CC3O)cnn1-c1ccccc1 (stereo not shown) [Compound 221, N-{4-[2-(4-chloro-3-fluorophenoxy)acetamido]-2-hydroxybicyclo[2.2.2]octan-1-yl}-5-methyl-1-phenyl-1H-pyrazole-4-carboxamide]	1000 to 2000
O=C(COc1ccc(Cl)c(F)c1)NC12CC(NC(=O)c3ncccn3)(C1)C2 [Compound 793, N-{3-[2-(4-chloro-3-fluorophenoxy)acetamido]bicyclo[1.1.1]pentan-1-yl}pyrimidine-2-carboxamide]	250 to 1000
CCCc1ncc(C(=O)NC23CC(NC(=O)COc4ccc(Cl)c(F)c4)(C2)C3)s1 [Compound 293, N-{3-[2-(4-chloro-3-fluorophenoxy)acetamido]bicyclo[1.1.1]pentan-1-yl}-2-propyl-1,3-thiazole-5-carboxamide]	< 50
O=C(COc1ccc(Cl)c(F)c1)NC12CCC(NC(=O)c3cc(-c4c(F)cccc4F)no3)(CC1)CC2O (stereo not shown) [Compound 409, N-{4-[2-(4-chloro-3-fluorophenoxy)acetamido]-3-hydroxybicyclo[2.2.2]octan-1-yl}-3-(2,6-difluorophenyl)-1,2-oxazole-5-carboxamide]	50 to 250
O=C(COc1ccc(Cl)c(F)c1)NC12CCC(NC(=O)c3ccccn3)(C1)C2 [Compound 356, N-{4-[2-(4-chloro-3-fluorophenoxy)acetamido]bicyclo[2.1.1]hexan-1-yl}pyridine-2-carboxamide]	> 2000
O=C(COc1ccc(Cl)c(F)c1)NC12CCC(NC(=O)c3onc4ccccc34)(CC1)C(O)C2 (stereo not shown) [Compound 332, N-{4-[2-(4-chloro-3-fluorophenoxy)acetamido]-2-hydroxybicyclo[2.2.2]octan-1-yl}-2,1-benzoxazole-3-carboxamide]	> 2000
O=C(COc1ccc(Cl)c(F)c1)NC12CC(Nc3nccc(-c4ccc(Cl)cc4)n3)(C1)C2 [Compound 370, 2-(4-chloro-3-fluorophenoxy)-N-(3-{[4-(4-chlorophenyl)pyrimidin-2-yl]amino}bicyclo[1.1.1]pentan-1-yl)acetamide]	< 50
O=C(COc1ccc(Cl)c(F)c1)NC12CCC(NC(=O)c3cn[nH]c3)(CC1)C(O)C2 (stereo not shown) [Compound 214, N-{4-[2-(4-chloro-3-fluorophenoxy)acetamido]-2-hydroxybicyclo[2.2.2]octan-1-yl}-1H-pyrazole-4-carboxamide]	> 2000
O=C(COc1ccc(Cl)c(F)c1)NC12CC(NC(=O)c3cc(F)cc(F)c3)(C1)C2 [Compound 513, N-{3-[2-(4-chloro-3-fluorophenoxy)acetamido]bicyclo[1.1.1]pentan-1-yl}-3,5-difluorobenzamide]	50 to 250
Cc1coc(C(=O)NC23CC(NC(=O)COc4ccc(Cl)c(F)c4)(C2)C3)c1 [Compound 613, N-{3-[2-(4-chloro-3-fluorophenoxy)acetamido]bicyclo[1.1.1]pentan-1-yl}-4-methylfuran-2-carboxamide]	50 to 250
COc1csc(C(=O)NC23CC(NC(=O)COc4ccc(Cl)c(F)c4)(C2)C3)c1 [Compound 857, N-{3-[2-(4-chloro-3-fluorophenoxy)acetamido]bicyclo[1.1.1]pentan-1-yl}-4-methoxythiophene-2-carboxamide]	50 to 250
Cc1cc(C(=O)NC23CC(NC(=O)COc4ccc(Cl)c(F)c4)(C2)C3)ncc1Cl [Compound 664, 5-chloro-N-{3-[2-(4-chloro-3-fluorophenoxy)acetamido]bicyclo[1.1.1]pentan-1-yl}-4-methylpyridine-2-carboxamide]	250 to 1000
O=C(COc1ccc(Cl)c(F)c1)NC12CC(NC(=O)c3cccnc3)(C1)C2 [Compound 130, N-{3-[2-(4-chloro-3-fluorophenoxy)acetamido]bicyclo[1.1.1]pentan-1-yl}pyridine-3-carboxamide]	50 to 250
O=C(COc1ccc(Cl)c(F)c1)NC12CCC(NC(=O)c3ccc(F)cn3)(CC1)CC2O (stereo not shown) [Compound 230, N-{4-[2-(4-chloro-3-fluorophenoxy)acetamido]-3-hydroxybicyclo[2.2.2]octan-1-yl}-5-fluoropyridine-2-carboxamide]	50 to 250
O=C(COc1ccc(Cl)c(F)c1)NC12CC(NC(=O)c3cn4cccnc4n3)(C1)C2 [Compound 772, N-{3-[2-(4-chloro-3-fluorophenoxy)acetamido]bicyclo[1.1.1]pentan-1-yl}imidazo[1,2-a]pyrimidine-2-carboxamide]	> 2000
O=C(COc1ccc(Cl)c(F)c1)NC12CCC(NC(=O)c3cnc(C(F)F)cn3)(CC1)[C@H](O)C2 (single isomer, unassigned) [Compound 235]	50 to 250
